Organism: Rattus norvegicus
Assay: DrugMatrix - Regimen: Daily Repeat
Assay type: toxicity, organism-based, Sprague-Dawley
Design: regimen Daily Repeat, gender Male, age 6-8 weeks
Conditions: in vivo, po, route oral GAVAGE, vehicle 100 % WATER; for ABSOLUTE BASOPHIL / ABSOLUTE EOSINOPHIL / ABSOLUTE LYMPHOCYTE / ABSOLUTE MONOCYTE / ABSOLUTE SEGMENTED NEUTROPHIL / BASOPHIL / EOSINOPHIL / ERYTHROCYTE COUNT / HEMATOCRIT / HEMOGLOBIN / LEUKOCYTE COUNT / LYMPHOCYTE / MEAN CORPUSCULAR HEMOGLOBIN / MEAN CORPUSCULAR HEMOGLOBIN CONCENTRATION / MEAN CORPUSCULAR VOLUME / MONOCYTE / NEUTROPHIL / NUCLEATED RED BLOOD CELLS / PLATELET COUNT: tissue Blood; for ALANINE AMINOTRANSFERASE / ALBUMIN / ALKALINE PHOSPHATASE / ASPARTATE AMINOTRANSFERASE / BLOOD UREA NITROGEN / CARBON DIOXIDE / CHLORIDE / CHOLESTEROL / CREATINE PHOSPHOKINASE / CREATININE / GLUCOSE / LACTATE DEHYDROGENASE / LIPASE / PHOSPHORUS / POTASSIUM / SODIUM / TOTAL BILIRUBIN / TOTAL PROTEIN / URIC ACID: tissue Plasma
[1] = 0 mg/kg, 72 h, dose level Control, time 3 day
[2] = 0 mg/kg, 120 h, dose level Control, time 5 day
[3] = 100 mg/kg, 72 h, dose level Low, time 3 day

NCC1(CC(=O)O)CCCCC1 [GABAPENTIN]
ABSOLUTE BASOPHIL [1]: 0 CELLS/uL | ABSOLUTE EOSINOPHIL [1]: 133.83 CELLS/uL | ABSOLUTE LYMPHOCYTE [1]: 11674.67 CELLS/uL | ABSOLUTE MONOCYTE [1]: 65.33 CELLS/uL | ABSOLUTE SEGMENTED NEUTROPHIL [1]: 1559.5 CELLS/uL | BASOPHIL [1]: 0% | EOSINOPHIL [1]: 1% | ERYTHROCYTE COUNT [1]: 5.26 x10E6/uL | HEMATOCRIT [1]: 34.15% | HEMOGLOBIN [1]: 13.6 G/DL | LEUKOCYTE COUNT [1]: 13.43 x10E3/uL | LYMPHOCYTE [1]: 86.83% | MEAN CORPUSCULAR HEMOGLOBIN [1]: 25.87 pg | MEAN CORPUSCULAR HEMOGLOBIN CONCENTRATION [1]: 39.85 G/DL | MEAN CORPUSCULAR VOLUME [1]: 64.93 fL | MONOCYTE [1]: 0.5% | NEUTROPHIL [1]: 11.67% | NUCLEATED RED BLOOD CELLS [1]: 0.17 /100WBC | PLATELET COUNT [1]: 1188.5 x10E3/uL | ALANINE AMINOTRANSFERASE [1]: 48.5 u/L | ALBUMIN [1]: 4.1 G/DL | ALKALINE PHOSPHATASE [1]: 338.83 u/L | ASPARTATE AMINOTRANSFERASE [1]: 84.17 u/L | BLOOD UREA NITROGEN [1]: 15.17 mg/dL | CARBON DIOXIDE [1]: 26.83 mmol/L | CHLORIDE [1]: 101.33 MEQ/L | CHOLESTEROL [1]: 77 mg/dL | CREATINE PHOSPHOKINASE [1]: 600.83 u/L | CREATININE [1]: 0.15 mg/dL | GLUCOSE [1]: 161.67 mg/dL | LACTATE DEHYDROGENASE [1]: 222.17 u/L | LIPASE [1]: 10.17 u/L | PHOSPHORUS [1]: 12.63 mg/dL | POTASSIUM [1]: 6.36 MEQ/L | SODIUM [1]: 143.17 MEQ/L | TOTAL BILIRUBIN [1]: 0.17 mg/dL | TOTAL PROTEIN [1]: 5.65 G/DL | URIC ACID [1]: 1.38 mg/dL | ABSOLUTE BASOPHIL [2]: 0 CELLS/uL | ABSOLUTE EOSINOPHIL [2]: 66.5 CELLS/uL | ABSOLUTE LYMPHOCYTE [2]: 10848.67 CELLS/uL | ABSOLUTE MONOCYTE [2]: 106.17 CELLS/uL | ABSOLUTE SEGMENTED NEUTROPHIL [2]: 1028.67 CELLS/uL | BASOPHIL [2]: 0% | EOSINOPHIL [2]: 0.5% | ERYTHROCYTE COUNT [2]: 5.42 x10E6/uL | HEMATOCRIT [2]: 34.53% | HEMOGLOBIN [2]: 14.07 G/DL | LEUKOCYTE COUNT [2]: 12.05 x10E3/uL | LYMPHOCYTE [2]: 90% | MEAN CORPUSCULAR HEMOGLOBIN [2]: 25.98 pg | MEAN CORPUSCULAR HEMOGLOBIN CONCENTRATION [2]: 40.73 G/DL | MEAN CORPUSCULAR VOLUME [2]: 63.78 fL | MONOCYTE [2]: 1% | NEUTROPHIL [2]: 8.5% | NUCLEATED RED BLOOD CELLS [2]: 0 /100WBC | PLATELET COUNT [2]: 1256.33 x10E3/uL | ALANINE AMINOTRANSFERASE [2]: 55.17 u/L | ALBUMIN [2]: 4.3 G/DL | ALKALINE PHOSPHATASE [2]: 333.83 u/L | ASPARTATE AMINOTRANSFERASE [2]: 81.33 u/L | BLOOD UREA NITROGEN [2]: 15.67 mg/dL | CARBON DIOXIDE [2]: 30 mmol/L | CHLORIDE [2]: 100.67 MEQ/L | CHOLESTEROL [2]: 67.67 mg/dL | CREATINE PHOSPHOKINASE [2]: 221.33 u/L | CREATININE [2]: 0.16 mg/dL | GLUCOSE [2]: 161.33 mg/dL | LACTATE DEHYDROGENASE [2]: 166.83 u/L | LIPASE [2]: 8.33 u/L | PHOSPHORUS [2]: 12.63 mg/dL | POTASSIUM [2]: 5.98 MEQ/L | SODIUM [2]: 144.63 MEQ/L | TOTAL BILIRUBIN [2]: 0.2 mg/dL | TOTAL PROTEIN [2]: 6.15 G/DL | URIC ACID [2]: 1.17 mg/dL | ABSOLUTE BASOPHIL [3]: 0 CELLS/uL | ABSOLUTE EOSINOPHIL [3]: 86.33 CELLS/uL | ABSOLUTE LYMPHOCYTE [3]: 13178.33 CELLS/uL | ABSOLUTE MONOCYTE [3]: 43 CELLS/uL | ABSOLUTE SEGMENTED NEUTROPHIL [3]: 1125.67 CELLS/uL | BASOPHIL [3]: 0% | EOSINOPHIL [3]: 0.67% | ERYTHROCYTE COUNT [3]: 5.28 x10E6/uL | HEMATOCRIT [3]: 34.3% | HEMOGLOBIN [3]: 13.73 G/DL | LEUKOCYTE COUNT [3]: 14.43 x10E3/uL | LYMPHOCYTE [3]: 91% | MEAN CORPUSCULAR HEMOGLOBIN [3]: 26.1 pg | MEAN CORPUSCULAR HEMOGLOBIN CONCENTRATION [3]: 40.1 G/DL | MEAN CORPUSCULAR VOLUME [3]: 65 fL | MONOCYTE [3]: 0.33% | NEUTROPHIL [3]: 8% | NUCLEATED RED BLOOD CELLS [3]: 0 /100WBC | PLATELET COUNT [3]: 1169.33 x10E3/uL | ALANINE AMINOTRANSFERASE [3]: 52.33 u/L | ALBUMIN [3]: 4.17 G/DL | ALKALINE PHOSPHATASE [3]: 377.67 u/L | ASPARTATE AMINOTRANSFERASE [3]: 80 u/L | BLOOD UREA NITROGEN [3]: 14.33 mg/dL | CARBON DIOXIDE [3]: 27.33 mmol/L | CHLORIDE [3]: 103 MEQ/L | CHOLESTEROL [3]: 71 mg/dL | CREATINE PHOSPHOKINASE [3]: 245 u/L | CREATININE [3]: 0.17 mg/dL | GLUCOSE [3]: 170.67 mg/dL | LACTATE DEHYDROGENASE [3]: 111.67 u/L | LIPASE [3]: 9.67 u/L | PHOSPHORUS [3]: 11.67 mg/dL | POTASSIUM [3]: 6.11 MEQ/L | SODIUM [3]: 144.87 MEQ/L | TOTAL BILIRUBIN [3]: 0.23 mg/dL | TOTAL PROTEIN [3]: 5.67 G/DL | URIC ACID [3]: 1.6 mg/dL

Reference: ChEMBL document CHEMBL3885881, “DrugMatrix”
